Columns and labels:
[1] = system: HDL (high density lipoprotein) level; experiment: HDL level of Patient 1 after treatment; type: in vivo, human; conditions: Gemfibrozil 600 mg twice a day, later testing
Source text: Patient 1 suffered from a variety of conditions including diabetes, post traumatic attention deficit disorder, and irritable bowel syndrome. […] However, upon resuming the Gemfibrozil treatment, the levels were again reduced.

[2] = system: irritable bowel syndrome (IBS) symptoms; experiment: Patient subjective evaluation of IBS symptoms before and after treatment (case studies); type: in vivo, human
Experimental: Each patient subjectively evaluated his or her symptoms both before and after treatment on a scale from 0 to 10 with 0 representing the absence of symptoms and 10 indicating the most severe symptoms. […] Patient 2 also was treated with Gemfibrozil 600 mg twice daily. […] Patient 3 was originally treated with Gemfibrozil 600 mg twice daily.

[3] = Patient 1, Gemfibrozil 600 mg twice a day, within a day, scale 0 to 10, before 8
[4] = Patient 2, Gemfibrozil 600 mg twice daily, after 1.5 days, scale 0 to 10, before 0
[5] = Patient 3, Gemfibrozil 600 mg twice daily, after 2 days, scale 0 to 10, before 7

Cc1ccc(C)c(OCCCC(C)(C)C(=O)O)c1 [Gemfibrozil, 5-(2,5-dimethylphenoxy)-2,2-dimethylpentanoic acid]
HDL level after treatment [1]: increased | Change of evaluation of IBS symptoms ([2]; Patient 1, Gemfibrozil 600 mg twice a day, within a day): significant improvement | Patient evaluation of symptoms: Gas (After) ([2]; Patient 1, Gemfibrozil 600 mg twice a day, within a day, scale 0 to 10 (0 absence, 10 most severe), before 4): 1 | Patient evaluation of symptoms: Constipation (After) ([2]; Patient 1, Gemfibrozil 600 mg twice a day, within a day, scale 0 to 10, before 0): 0 | Patient evaluation of symptoms: Overall (After) ([2]; Patient 1, Gemfibrozil 600 mg twice a day, within a day, scale 0 to 10, before 6.5): 1 | Patient evaluation of symptoms: Cramps/Pain (After) [2, 3]: 1 | Patient evaluation of symptoms: Mucus (After) [2, 3]: 2 | Patient evaluation of symptoms: Diarrhea (After) ([2]; Patient 1, Gemfibrozil 600 mg twice a day, within a day, scale 0 to 10, before 9): 1 | IBS symptom levels upon resuming treatment ([2]; Patient 1, Gemfibrozil treatment resumed): again reduced | IBS symptoms on discontinued use ([2]; Patient 1, use of Gemfibrozil discontinued): returned to the before levels | Side effect experienced under treatment ([2]; Patient 2, Gemfibrozil 600 mg twice daily): occasional constipation | IBS symptoms after treatment ([2]; Patient 2, Gemfibrozil 600 mg twice daily, after 1.5 days of treatment): virtually disappeared | Patient evaluation of symptoms: Gas (After) ([2]; Patient 2, Gemfibrozil 600 mg twice daily, after 1.5 days of treatment, scale 0 to 10, before 4.5): 0 | Patient evaluation of symptoms: Constipation (After) [2, 4]: 3 | Patient evaluation of symptoms: Mucus (After) [2, 4]: 0 | Patient evaluation of symptoms: Cramps/Pain (After) ([2]; Patient 2, Gemfibrozil 600 mg twice daily, after 1.5 days, scale 0 to 10, before 5): 0 | Patient evaluation of symptoms: Diarrhea (After) ([2]; Patient 2, Gemfibrozil 600 mg twice daily, after 1.5 days, scale 0 to 10, before 8.5): 0 | Patient evaluation of symptoms: Overall (After) ([2]; Patient 2, Gemfibrozil 600 mg twice daily, after 1.5 days, scale 0 to 10, before 9): 1 | IBS symptoms after treatment ([2]; Patient 3, Gemfibrozil 600 mg twice daily, after 2 days of treatment): greatly improved | Patient evaluation of symptoms: Gas (After) ([2]; Patient 3, Gemfibrozil 600 mg twice daily, after 2 days of treatment, scale 0 to 10, before 3): 1 | Patient evaluation of symptoms: Constipation (After) ([2]; Patient 3, Gemfibrozil 600 mg twice daily, after 2 days, scale 0 to 10, before 0): 0 | Patient evaluation of symptoms: Mucus (After) ([2]; Patient 3, Gemfibrozil 600 mg twice daily, after 2 days, scale 0 to 10, before 3): 0 | Patient evaluation of symptoms: Cramps/Pain (After) [2, 5]: 2 | Patient evaluation of symptoms: Overall (After) [2, 5]: 2 | Patient evaluation of symptoms: Diarrhea (After) ([2]; Patient 3, Gemfibrozil 600 mg twice daily, after 2 days, scale 0 to 10, before 9): 3

CC(C)OC(=O)C(C)(C)Oc1ccc(C(=O)c2ccc(Cl)cc2)cc1 [micronized fenofibrate, 2-(4-(4-chlorobenzoyl)phenoxy)-2-methyl-propanoic acid 1-methyl ethyl ester]
Patient evaluation of symptoms in all categories ([2]; Patient 3, micronized fenofibrate 200 mg daily, after discontinuing Gemfibrozil, scale 0 to 10): 0

From patent US7601756B2, “Method of treatment for irritable bowel syndrome” (Snowden Pharmaceuticals, LLC, priority 2003, dated 2009)
